Measured values taken from US7247306B2, “Bacteria strain and bacteriocin produced therefrom” (Universite Laval, priority 2004, dated 2007).

Tests used:
Assay in all cases: Agar diffusion method, spectrum of activity
Format in all cases: cell-based
Lactobacillus casei = tested on: Lactobacillus casei; design: key: +, inhibition;; −, no inhibition; conditions: strain R R0256
Procedure: (§1) Bacteria stocks were maintained as 20% glycerol stock, at −80° C., for further use. Carnobacterium sp. and Lactococcus sp. strains were cultivated in MRS broth comprising 0.1% (vol/vol) Tween 80® in aerobic condition at 30° C., as currently known in the art. Listeria monocytogenes and Escherichia coli were grown in tryptic soy broth (TSB), supplemented with 0.6% (wt/vol) yeast extract in aerobic conditions, at 37° C., while Listeria innocua and L. ivanovii were re-cultivated in TSB with yeast extract and incubated aerobically at 30° C. Streptococcus thermophilus, Propionibacterium sp. and pediococci were activated in MRS broth at 37° C. under aerobic condition. All lactobacilli and bifidobacteria were grown in MRS broth supplemented with 0.05% (wt/vol) L-cysteine-hydrochloride and incubated anaerobically in Oxoid jars using an atmosphere generation system, at 37° C. In prior experiments, bacteria strains were sub-cultured at least three times (1%, vol/vol) in respective media at 24 h intervals.
(§2) The antibacterial activity of bacteriocin produced by C. divergens M35 was tested toward a variety of bacteria species, listed in Table 1, and belonging to genus Listeria, Lactobacillus, Streptococcus, Lactococcus, Propionibacterium and Escherichia, and was evaluated following the agar diffusion method, as is well known to those skilled in the art.

Lactobacillus plantarum = tested on: Lactobacillus plantarum; design: key: +, inhibition;; −, no inhibition; conditions: strain R 1012
Procedure: as §1, §2

[1] = tested on: Lactococcus lactis (subsp. lactis biovar. diacetylactis); design: key: +, inhibition;; −, no inhibition
Procedure: as §1, §2

Lactobacillus salivarius = tested on: Lactobacillus salivarius; design: key: +, inhibition;; −, no inhibition; conditions: strain R 0078
Procedure: as §1, §2

[2] = tested on: Lactobacillus acidophilus; design: key: +, inhibition;; −, no inhibition; conditions: strain R 0052
Procedure: as §1, §2

[3] = tested on: Propionibacterium freudenreichii; design: key: +, inhibition;; −, no inhibition; conditions: strain R 0501
Procedure: as §1, §2

Pediococcus pentosaceus = tested on: Pediococcus pentosaceus; design: key: +, inhibition;; −, no inhibition; conditions: strain R 1044
Procedure: as §1, §2

[4] = tested on: Lactococcus lactis (subsp. lactis); design: key: +, inhibition;; −, no inhibition; conditions: strain R0058
Procedure: as §1, §2

Bifidobacterium breve = tested on: Bifidobacterium breve; design: key: +, inhibition;; −, no inhibition; conditions: strain ATCC 15700
Procedure: as §1, §2

[5] = tested on: Streptococcus thermophilus; design: key: +, inhibition;; −, no inhibition; conditions: strain R 0083
Procedure: as §1, §2

Lactobacillus rhamnosus = tested on: Lactobacillus rhamnosus; design: key: +, inhibition;; −, no inhibition; conditions: strain R 0011
Procedure: as §1, §2

Pediococcus acidilactici = tested on: Pediococcus acidilactici; design: key: +, inhibition;; −, no inhibition
Procedure: as §1, §2

L. ivanovii = tested on: L. ivanovii; design: key: +, inhibition;; −, no inhibition
Procedure: as §1, §2

[6] = tested on: Lactobacillus delbrueckii subsp. lactis; design: key: +, inhibition;; −, no inhibition; conditions: strain R 0187
Procedure: as §1, §2

Propionibacterium sp. = tested on: Propionibacterium sp.; design: key: +, inhibition;; −, no inhibition; conditions: strain P5
Procedure: as §1, §2

Carnobacterium divergens = tested on: Carnobacterium divergens; design: key to Sensitivity to divergicin M35: +, inhibition;; −, no inhibition; conditions: strain ATCC 385
Procedure: as §1, §2

L. grayi = tested on: L. grayi; design: key to Sensitivity to divergicin M35: +, inhibition;; −, no inhibition; conditions: strain LSD 13
Procedure: as §1, §2

Escherichia coli = tested on: Escherichia coli; design: key to Sensitivity to divergicin M35: +, inhibition;; −, no inhibition
Procedure: as §1, §2

Substance: divergicin M35: class IIa bacteriocin of 43 amino acids, 4518 Da, produced by Carnobacterium divergens strain M35 (SEQ ID NO: 1) (TKYYGNGVYCNSKKCWVDWGTAQGCIDVVIGQLGGGIPGKGKC; listed as Carnobacterium divergens)
- Sensitivity to divergicin M35 (Lactobacillus casei): −
- Sensitivity to divergicin M35 (Lactobacillus plantarum): −
- Sensitivity to divergicin M35 ([1]; strain R 0100): −
- Sensitivity to divergicin M35 ([1]; strain UL719): −
- Sensitivity to divergicin M35 (Lactobacillus salivarius): −
- Sensitivity to divergicin M35 [2]: −
- Sensitivity to divergicin M35 [3]: −
- Sensitivity to divergicin M35 (Pediococcus pentosaceus): −
- Sensitivity to divergicin M35 [4]: −
- Sensitivity to divergicin M35 (Bifidobacterium breve): −
- Sensitivity to divergicin M35 [5]: −
- Sensitivity to divergicin M35 (Lactobacillus rhamnosus): −
- Sensitivity to divergicin M35 (Pediococcus acidilactici; strain R 1001): −
- Sensitivity to divergicin M35 (Pediococcus acidilactici; strain UL 5): −
- Sensitivity to divergicin M35 (L. ivanovii; strain ATCC19119): −
- Sensitivity to divergicin M35 (L. ivanovii; strain HPB28): +
- Sensitivity to divergicin M35 [6]: −
- Sensitivity to divergicin M35 (Propionibacterium sp.): −
- Diameter of inhibition zone (mm) (Carnobacterium divergens): 15.0 ± 1 mm
- Sensitivity to divergicin M35 (Carnobacterium divergens): +
- Diameter of inhibition zone (mm) (L. grayi): 15.0 ± 1 mm
- Sensitivity to divergicin M35 (L. grayi): +
- Sensitivity to divergicin M35 (Escherichia coli; Escherichia coli 22): −
- Sensitivity to divergicin M35 (Escherichia coli; Escherichia coli 43): −
- effect on Gram-negative strains (in words) (Escherichia coli; Escherichia coli strains tested): not affected
